Data taken from patent US20260315565A1, “ANTIOXIDANT-CONTAINING EYE DROP FORMULATIONS AND METHODS OF PREVENTION AND/OR TREATMENT USING SAME” (Marizyme, Inc., priority 2022, published 2026).

What was measured:
[1] = accelerated stability of ascorbic acid in eye drop formulations (UV-VIS, 260 nm); assay type: physicochemical; settings: stored at 40° C. for 30 days; pH 3.5 vs pH 5
Description: (§1) Namely, appropriate amounts of the various components were weighed and then mixed with “Water for Injection” (WFI) at room temperature in a laminar flow hood to achieve the concentrations listed in Table 1. The various components were dissolved in the WFI using a magnetic stir bar and stirring at 350 rpm, or any appropriate mixing speed, until dissolution was complete. The final pH of each formulation was adjusted to pH 3.5 or pH 5.0, as listed in Table 1, using 5N HCl or 5N NaOH, respectively. The resulting solutions were then passed through a 0.21, […] filter while filling sterile vials with the respective formulations for use in stability studies. […]
(§2) At each point in the testing schedule, physical properties, such as clarity, color, odor, particle count and the like, of the formulations stored in the pulled vials were examined by physical observation. Concentrations of the antioxidants were also measured, and analytical tests of the formulations in the vials were carried out according to the protocol listed in Table 3.
(§3) The analytical assay method for stability testing of total thiols and ascorbic acid in eyedrop formulations (UV-VIS in Table 3) are performed as follows. […] Both components are measured on one sample preparation. […] By applying the appropriate dilution and conversion factors, the concentration of each component in the formulation can be calculated. […]

[2] = accelerated stability of glutathione (total thiols) in eye drop formulations (UV-VIS with DTNB, 412 nm); assay type: physicochemical; settings: stored at 40° C. for 30 days
Description: as §1, §2, §3

| SMILES | stability of ascorbic acid [1] | effect of higher molar ratios of ascorbic acid on glutathione stability [2] |
| --- | --- | --- |
| O=C1O[C@H]([C@@H](O)CO)C(O)=C1O [ascorbic acid, L-ascorbic acid] | more stable at the lower pH of 3.5 compared to pH 5 | – |
| N[C@@H](CCC(=O)N[C@@H](CS)C(=O)NCC(=O)O)C(=O)O [glutathione, L-glutathione] | – | destabilizing effect of higher molar ratios of ascorbic acid on glutathione |
